Values quoted from earlier work as cited in paper PMC6048117 (Scientific Reports, 2018).
Like-named read-outs stand apart in the source and are kept apart here.

Key:
[1] = test system: nigral 6-OHDA partial or full lesion rat model

Substance: liraglutide (HAEGTFTSDVSSYLEGQAAKEFIAWLVRGRG; chains of the INN, looked up) [GLP-1R agonist]
- Efficacy in nigral 6-OHDA partial or full lesion rat model [1]: failed to demonstrate efficacy
- Neuroprotection in MPTP model (MPTP model; 25 nmol/kg): did demonstrate neuroprotection

Substance: lixisenatide
- Neuroprotection in MPTP model (MPTP model; 10 nmol/kg): did demonstrate neuroprotection
